In ChEMBL document CHEMBL1150571, “Hipposulfates A and B, new sesterterpene sulfates from an Okinawan sponge, Hippospongia cf. metachromia” (J Nat Prod, 2001):

Assays:
Assay type in all cases: functional, cell-based
SK-MEL-28 = experiment: Cytotoxicity against human SK-MEL-28 cells
P388 = experiment: Cytotoxicity against mouse P388 cells
HT-29 = experiment: Cytotoxicity against human HT-29 cells
A549 = experiment: Cytotoxicity against human A549 cells

Measured: IC50

CC1=CC[C@H]2C(C)(C)CCC[C@]2(C)[C@H]1CC/C(=C\OS(=O)(=O)[O-])CCC/C(C)=C/Cc1cc(O)ccc1O.[Na+] [HIPPOSULFATE A]
2 µg/mL: all assays above
